Here are results for 2 compounds from patent US5631275A, “Substituted benzenesulfonylureas and -thioureas, preparation processes and possible uses of pharmaceutical preparations based on these compounds” (Hoechst Aktiengesellschaft, priority 1993, dated 1997).

SMILES strings stand for the structures.

The subject of test [1] is papillary muscle of the guineapig. Briefly: Action potential duration on the papillary muscle of the guineapig. Format: cell-based. The settings on record: test substance 2.2×10^-5 mol per liter, 30 minutes after the addition, control without test substance <40; for APD95 -HOE 234: action potential shortened by 1 μM rilmakalim (Hoe 234); for APD95 -DEO: action potential shortened by 2-deoxyglucose (DEO). The text has this:
ATP deficiency states such as are observed during ischemia in the cardiac muscle cell lead to a shortening of the duration of action potential. They are one of the causes of so-called reentry arrhythmias, which can cause sudden cardiac death. Opening of ATP-sensitive K channels by the reduction in ATP is a cause of this.
A standard microelectrode technique is used for measurement of the action potential. For this, guineapigs of both sexes are sacrificed by a blow to the head, the hearts are removed and the papillary muscles are separated out and suspended in an organ bath. The organ bath is flushed with Ringer solution (0.9% NaCl, 0.048% KCl, 0.024% CaCl2, 0.02% NaHCO3 and 0.1% glucose) and gassed with a mixture of 95% oxygen and 5% carbon dioxide at a temperature of 36° C. The muscle is stimulated via an electrode with rectangular pulses of 1 V and 1 ms duration and a frequency of 2 Hz. The action potential is conducted and recorded through a glass microelectrode, which is punctured intracellularly and filled with […] solution. The substances to be tested were added to the Ringer solution in a concentration of 2.2×10^-5 mol per liter. The action potential is shown in amplified form on an oscilloscope using a Hugo Sachs amplifier. The duration of the action potential is determined at a repolarization degree of 95% (APD95). Shortenings in action potential are caused either by addition of a 1 μM strength solution of the potassium channel opener rilmakalim (Hoe 234) [W. Linz, E. Klaus, U. Albus, R. H. A. Becker, D. Mania, H. C. Englert, B. A. Scholkens Arzneimittelforschung/Drug Research, Volume 42 (II), 1992, pages 1180-1185] or by addition of 2-deoxyglucose (DEO). ATP deficiency states are caused in experimental physiology by 2-deoxyglucose by blockade of glucose metabolism. The action potential-shortening effect of these substances was prevented or reduced by the simultaneous dose of the test substances. The test substances were added to the bath solution as stock solutions in propanediol. The values stated relate to measurements 30 minutes after the addition. The APD95 in the presence of DEO or HOE 234 and in the absence of the test substance serves as a control.

Test [2] relates to RINm5F cells. Briefly: Membrane potential on isolated β cells (RINm5F cells, whole cell patch clamp). The class given is cell-based. The settings on record: 10^-5 mol per liter, diazoxide (100 μmol) in bath, 34°±1° C., n = 6. The procedure: The action mechanism of hypoglycemic sulfonylureas is clarified in rough outlines. The β cells of the pancreas are the target organ, where increased secretion of the hypoglycemic hormone insulin occurs. The release of insulin is controlled by the cell membrane potential. Glihenclamide causes depolarization of the cell membrane, which promotes insulin release via an increased in-flow of calcium ions. The extent of this depolarization of the cell membrane ΔU was determined on RINm5F cells, a pancreas tumor cell line, for some of the compounds according to the invention. The action strength of a compound in this model predicts the extent of the hypoglycemic potential of this compound.
RINm5F cells were cultured at 37° C. in RPMI 1640 culture medium (flow), to which 11 mmol of glucose, 10% (volume/volume) of fetal calf serum, 2 mmol of glutamine and 50 μg/ml of gentamycin were added. For the studies, the cells were isolated by incubation (about 3 minutes) in a Ca^2+ -free medium containing 0.25% of trypsin and stored on ice.
Isolated RINm5F cells were introduced into a Plexiglas chamber on an inverse microscope fitted with a differential interference contrast lens. […] The cell potential was recorded in this whole cell configuration with the aid of a patch clamp amplifier (L/M EPC 7) and was measured by applying a potential ramp to the whole cell current. […]
On the technique in general: The patch-clamp technique gives a direct electrical read-out from membranes.

`CCC1=C(C)CN(C(=O)NCCc2ccc(OC)c(S(=O)(=O)NC(=S)NC)c2)C1=O` [Example 1, 1-{2-Methoxy-5-[2-(3-ethyl-4-methyl-2-oxo-3-pyrrolinyl-1-carboxamido)-ethyl]-phenylsulfonyl-}3-methylthiourea]: in test [1], the “APD95 -HOE 234” value is given as 119 ± 16 ms and the “APD95 -DEO” value stood at 60 ± 22 ms. For the same compound, the “ΔU (depolarization of the cell membrane)” value in test [2] is reported as 2 mV.
In the same order, the values of `CCC1=C(C)CN(C(=O)NCCc2ccc(OC)c(S(=O)(=O)NC(=O)NC)c2)C1=O` [Example 2, 1-{2-Methoxy-5-[2-(3-ethyl-4-methyl-2-oxo-3-pyrrolinyl-1-carboxamido)-ethyl]-phenylsulfonyl-}3-methylurea] are 125 ms, 110 ms and 12 mV.
